Here are results for 1 substance from patent US11781101B2, “3D-printed models of biological microenvironments” (Regents of the University of Minnesota, priority 2018, dated 2023).

In this assay the test system is HUVEC-lined conduit. The following applies: laser-triggered release of VEGF from capsules on one side of conduit.

Source text: To mimic the beginning of a metastatic cascade in the context of cell types relevant to the tumor microenvironment, a vascularized 3D-printed culture chamber was configured to provide spatiotemporal control over both tumor cell invasion and angiogenesis as illustrated in FIG. 28. The angiogenic mediator VEGF was introduced to promote and direct the formation of a vascular network from a pre-existing uniaxial conduit.

With VEGF, the “endothelial sprouting from the conduit” value is listed as “numerous endothelial cells sprouted from the conduit”.
